These compounds were tested against T1, GABAA receptors (α5β2γ2) (Homo sapiens, UniProt P18507+P31644) (assay: Positive allosteric modulator activity: potentiation of EC20 GABA current in oocytes). Conditions: read-out: GABA α5 functional potentiation.
T1 construct: expressed in transfected cells
Type: cell-based
Protocol: On day 1, 1 ng/32 nL of GABAA α5β2γ2 cDNA was injected into one oocyte. Test starts on day 2. The cDNA injected to the oocytes was a mix of alpha, beta and gamma, their ratio is 1:1:10 (by weight) and the total weight of the mixed 3 subunits to be injected in one oocyte was 1 ng in 32 nl volume. The injected oocytes can also be tested on day 3. In such case, the cDNA amount injected to the oocytes should be reduced by 20%.
1). 8 oocytes were placed in 8 chambers of OpusXpress and superfused with Modified Barth's Saline (MBS) at 3 mL/min. Glass electrodes back-filled with 3M KCl (0.5-3 megaohms) were used.
1). Repeat the above steps 1), 2) and 3) in the control test.
2). […] Divide Itest by IGABA to obtain potentiation (%).
3). Discard all tested oocytes, new oocytes were used and the above steps 1) and 2) were repeated to test second concentration of the same compound. Each oocyte was used for only one concentration test for a single test compound. The steps were repeated for other test compounds.

T1 sequence (P31644 32-462): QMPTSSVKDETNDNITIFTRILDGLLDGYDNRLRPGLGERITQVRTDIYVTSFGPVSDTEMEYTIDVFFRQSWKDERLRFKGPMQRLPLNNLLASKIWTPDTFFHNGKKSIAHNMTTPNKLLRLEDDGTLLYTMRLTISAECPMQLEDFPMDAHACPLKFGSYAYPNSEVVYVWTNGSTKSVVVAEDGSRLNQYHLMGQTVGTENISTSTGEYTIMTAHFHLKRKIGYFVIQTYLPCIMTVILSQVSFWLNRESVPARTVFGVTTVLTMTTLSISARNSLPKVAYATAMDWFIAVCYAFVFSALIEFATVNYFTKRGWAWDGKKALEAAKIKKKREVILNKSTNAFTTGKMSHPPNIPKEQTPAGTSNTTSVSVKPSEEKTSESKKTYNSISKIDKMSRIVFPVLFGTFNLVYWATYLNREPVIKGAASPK
T1 sequence (P47870 25-512 partner limits assumed): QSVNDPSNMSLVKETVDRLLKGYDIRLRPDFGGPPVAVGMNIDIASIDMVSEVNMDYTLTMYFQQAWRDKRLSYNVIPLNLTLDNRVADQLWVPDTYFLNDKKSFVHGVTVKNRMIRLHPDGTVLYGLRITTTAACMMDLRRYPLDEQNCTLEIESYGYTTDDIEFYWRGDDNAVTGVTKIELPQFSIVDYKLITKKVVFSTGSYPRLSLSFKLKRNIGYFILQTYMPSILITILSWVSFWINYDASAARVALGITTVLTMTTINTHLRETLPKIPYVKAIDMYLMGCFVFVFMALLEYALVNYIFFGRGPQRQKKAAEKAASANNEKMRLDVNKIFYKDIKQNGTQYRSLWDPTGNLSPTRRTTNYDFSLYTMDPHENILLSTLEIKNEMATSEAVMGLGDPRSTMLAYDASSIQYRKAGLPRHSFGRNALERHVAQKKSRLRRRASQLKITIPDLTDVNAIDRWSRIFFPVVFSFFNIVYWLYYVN
T1 sequence (P18507 40-475): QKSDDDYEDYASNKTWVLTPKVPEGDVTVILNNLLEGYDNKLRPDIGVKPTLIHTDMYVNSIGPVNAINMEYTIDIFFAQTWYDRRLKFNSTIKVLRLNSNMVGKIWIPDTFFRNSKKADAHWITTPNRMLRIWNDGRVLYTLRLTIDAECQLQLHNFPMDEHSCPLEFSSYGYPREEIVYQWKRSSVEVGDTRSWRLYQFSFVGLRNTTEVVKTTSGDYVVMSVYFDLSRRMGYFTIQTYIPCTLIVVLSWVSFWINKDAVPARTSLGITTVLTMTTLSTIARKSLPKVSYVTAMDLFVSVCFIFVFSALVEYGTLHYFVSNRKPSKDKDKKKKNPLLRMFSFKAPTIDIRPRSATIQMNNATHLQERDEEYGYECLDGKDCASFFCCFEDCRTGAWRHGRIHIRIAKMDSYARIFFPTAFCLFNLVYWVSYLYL

Compound | activation at 0.1 µM
COc1ccc2c(c1)-c1nnc(COc3cccc(F)c3)n1Cc1c(-c3noc(C(C)C)n3)ncn1-2 [Compound 179] | > 50%
COc1ccc2c(c1)-c1nnc(COc3ccccc3)n1Cc1c(-c3noc(C(C)C)n3)ncn1-2 [Compound 171] | > 50%
Cc1nc(-c2ncn3c2Cn2c(COc4ccccc4)nnc2-c2cc(F)ccc2-3)no1 [Compound 148] | 20 to 49%
COc1ccc2c(c1)-c1nnc(COc3ccc(F)cc3)n1Cc1c(-c3noc(C(C)C)n3)ncn1-2 [Compound 172] | > 50%
COc1ccc2c(c1)-c1nnc(COc3ccccc3)n1Cc1c(-c3noc(C)n3)ncn1-2 [Compound 162] | 20 to 49%
COc1ccc2c(c1)-c1nnc(COc3ccccc3Cl)n1Cc1c(-c3noc(C(C)C)n3)ncn1-2 [Compound 175] | 20 to 49%
COc1ccc2c(c1)-n1nnc(Cc3ccccc3)c1Cc1c(Br)ncn1-2 [Compound 212] | 20 to 49%
COCc1nnc2n1Cc1c(-c3nc(C)no3)ncn1-c1ccc(OC)cc1-2 [Compound 128] | 20 to 49%
CCOC(=O)c1ncn2c1Cc1c(C)nnn1-c1cc(F)ccc1-2 [Compound 2] | 20 to 49%
Cc1nnn2c1Cc1c(C(=O)OCC(C)(C)C)ncn1-c1ccc(F)cc1-2 [Compound 113] | > 50%
CCOCc1nnc2n1Cc1c(-c3noc(C(C)C)n3)ncn1-c1ccc(OC)cc1-2 [Compound 173] | > 50%
COc1ccc2c(c1)-n1nnc(Cc3ccc(F)cc3)c1Cc1c(Br)ncn1-2 [Compound 213] | 20 to 49%
COc1ccc2c(c1)-c1nnc(COc3cccnc3)n1Cc1c(-c3noc(C(C)C)n3)ncn1-2 [Compound 176] | > 50%
CCOC(=O)c1ncn2c1Cc1c(Cc3cccnc3)nnn1-c1cc(C)ccc1-2 [Compound 111] | 20 to 49%
COc1ccc2c(c1)-c1nnc(COc3ccc(F)cc3)n1Cc1c(-c3noc(C)n3)ncn1-2 [Compound 163] | 20 to 49%
Cc1nnn2c1Cc1c(-c3noc(C(C)(C)C)n3)ncn1-c1ccc(F)cc1-2 [Compound 160] | > 50%
CCOC(=O)c1ncn2c1Cc1c(C)nnn1-c1cc(OC)ccc1-2 [Compound 1] | 20 to 49%
COc1ccc2c(c1)-c1nnc(COC3CCCC3)n1Cc1c(-c3noc(C(C)C)n3)ncn1-2 [Compound 178] | > 50%
CCOC(=O)c1ncn2c1Cc1c(CN3CCCC3)nnn1-c1cc(OC)ccc1-2 [Compound 48] | 20 to 49%
CC(C)c1nc(-c2ncn3c2Cn2c(COc4ccccc4)nnc2-c2cc(F)ccc2-3)no1 [Compound 147] | 20 to 49%
COc1ccc2c(c1)-c1nnc(COc3ccccc3F)n1Cc1c(-c3noc(C(C)C)n3)ncn1-2 [Compound 174] | > 50%
Cc1noc(-c2ncn3c2Cc2c(C)nnn2-c2ccccc2-3)n1 [Compound 126] | 20 to 49%
Cc1noc(-c2ncn3c2Cc2c(C)nnn2-c2cc(F)ccc2-3)n1 [Compound 110] | 20 to 49%
COCc1nnc2n1Cc1c(-c3nc(C(C)C)no3)ncn1-c1ccc(OC)cc1-2 [Compound 130] | 20 to 49%
CCc1nc(-c2ncn3c2Cc2c(C)nnn2-c2cc(F)ccc2-3)no1 [Compound 155] | 20 to 49%
